Molecules are shown by their SMILES.

For one compound, Km results are on record in patent US20090142811A1, “Discovery, Cloning and Purification of Thermococccus sp. (Strain 9 Degrees N-7) Dna Ligase” (New England Biolabs, Inc., priority 2005, published 2009).

In the assay the target is T1, Thermococcus sp. (strain 9° N-7) DNA ligase, clone B2, SEQ ID NO:15 (Thermococcus nautili, UniProt W8P6M3).
T1 construct: E. coli BL21(DE3)-RIL; purified
T1 sequence (W8P6M3 with tags, fused parts or gaps): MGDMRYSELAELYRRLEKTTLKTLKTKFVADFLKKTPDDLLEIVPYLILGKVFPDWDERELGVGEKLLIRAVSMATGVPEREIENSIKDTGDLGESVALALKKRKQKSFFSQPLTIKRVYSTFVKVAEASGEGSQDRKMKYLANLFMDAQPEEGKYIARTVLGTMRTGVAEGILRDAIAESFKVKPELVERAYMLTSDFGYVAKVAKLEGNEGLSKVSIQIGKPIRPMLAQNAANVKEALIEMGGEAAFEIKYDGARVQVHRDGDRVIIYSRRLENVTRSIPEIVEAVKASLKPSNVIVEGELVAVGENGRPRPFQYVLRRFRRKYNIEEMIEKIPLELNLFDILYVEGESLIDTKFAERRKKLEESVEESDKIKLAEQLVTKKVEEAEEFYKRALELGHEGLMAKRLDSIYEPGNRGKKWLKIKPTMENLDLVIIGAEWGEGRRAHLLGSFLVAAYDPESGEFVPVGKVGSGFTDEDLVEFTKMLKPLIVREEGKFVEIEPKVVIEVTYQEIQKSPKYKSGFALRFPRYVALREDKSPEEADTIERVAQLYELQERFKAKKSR
Put plainly: Km for ATP of purified Thermococcus sp. (strain 9° N-7) DNA ligase (ligation of lambda DNA). The conditions noted are these: typical assay: predigested lambda DNA substrate, 45° C.; recommended 10 mM Tris-HCl pH 7.5, 2.5 mM MgCl2, 2.5 mM DTT. In kind it is biochemical. As for the experimental part:
The recommended reaction conditions are:
The typical substrate for assaying activity at 45° C. is lambda DNA. Appropriately digested lambda DNA can reveal the state of ligation of the 12-base extension at the termini of lambda DNA. We typically used either a HindIII or BstEII predigested lambda DNA. Analysis of the ligation was performed on agarose gel electrophoresis.

With `Nc1ncnc2c1ncn2[C@@H]1O[C@H](COP(=O)(O)OP(=O)(O)OP(=O)(O)O)[C@@H](O)[C@H]1O` [ATP], the Michaelis constant (Km) is < 100 µM.

The Km is the substrate concentration at which the rate is half of its maximum.
